Experimental data from PubChem BioAssay AID248 (DTP/NCI, 2004).
Where “and” joins values, the source holds several entries; their conditions need not be identical. Equal values may be shown once. Toxic doses and inconclusive results are not listed. No stated cut-off is given here; in the data, active means T/C of 150% or more; inactive means T/C below 125%.

Tested on: L1210 leukemia ip in BDF1 mice, survival T/C
Assay: NCI In Vivo Anticancer Drug Screen. Data for tumor model L1210 Leukemia (intraperitoneal) in B6D2F1 (BDF1) mice
Conditions: endpoint: mean survival time, higher = longer survival
In short: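 Antitumor effect is assessed in tumor-bearing animals. Survival in the compound arm is compared with a vehicle-dosed control arm and expressed as their quotient.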

[1] = dose: 100.0 mg/kg/injection, schedule: Q04DX002 (ip), vehicle: saline with Tween-80
[2] = dose: 200.0 mg/kg/injection, schedule: Q04DX002 (ip), vehicle: saline with Tween-80
[3] = dose: 400.0 mg/kg/injection, schedule: Q04DX002 (ip), vehicle: saline with Tween-80
[4] = dose: 100.0 mg/kg/injection, schedule: Q01DX009 (ip), vehicle: saline with Tween-80
[5] = dose: 100.0 mg/kg/injection, schedule: Q04DX003 (ip), vehicle: Klucel (hydroxypropylcellulose) (HPC)
[6] = dose: 200.0 mg/kg/injection, schedule: Q04DX003 (ip), vehicle: Klucel (hydroxypropylcellulose) (HPC)
[7] = dose: 400.0 mg/kg/injection, schedule: Q04DX003 (ip), vehicle: Klucel (hydroxypropylcellulose) (HPC)
[8] = dose: 100.0 mg/kg/injection, schedule: Q04DX003 (ip), vehicle: saline
[9] = dose: 50.0 mg/kg/injection, schedule: Q04DX002 (ip), vehicle: saline with Tween-80
[10] = dose: 100.0 mg/kg/injection, schedule: Q01DX001 (ip), vehicle: saline with Tween-80
[11] = dose: 100.0 mg/kg/injection, schedule: Q04DX002 (ip), vehicle: Klucel (hydroxypropylcellulose) (HPC)
[12] = dose: 200.0 mg/kg/injection, schedule: Q01DX001 (ip), vehicle: saline with Tween-80
[13] = dose: 200.0 mg/kg/injection, schedule: Q04DX002 (ip), vehicle: Klucel (hydroxypropylcellulose) (HPC)

Measured: T/C

CCOC(=O)/C(O)=C\c1cc(Cl)nnc1Cl
inactive: dose: 162.5 mg/kg/injection, schedule: Q04DX002 (ip), vehicle: Klucel (hydroxypropylcellulose) (HPC) 100 % of control | dose: 325.0 mg/kg/injection, schedule: Q04DX002 (ip), vehicle: Klucel (hydroxypropylcellulose) (HPC) 95 % of control

CCOC(=O)c1ccc(N=Nc2ccc([N+](=O)[O-])cc2)cc1
inactive: [1] 105 % of control | [2] 105 % of control | [3] 112 % of control

O=[N+]([O-])c1ccc(/C=C/C=C/c2ccc(Cl)cc2Cl)cc1
inactive: [4] 94 % of control | dose: 200.0 mg/kg/injection, schedule: Q01DX009 (ip), vehicle: saline with Tween-80 94 % of control

CCOC(=O)CN1C(=O)Cc2ccccc21
inactive: dose: 75.0 mg/kg/injection, schedule: Q04DX002 (ip), vehicle: saline with Tween-80 101 % of control | dose: 150.0 mg/kg/injection, schedule: Q04DX002 (ip), vehicle: saline with Tween-80 108 % of control | dose: 300.0 mg/kg/injection, schedule: Q04DX002 (ip), vehicle: saline with Tween-80 104 % of control

Nc1c(OCCc2ccccc2)cccc1C(=O)O
inactive: dose: 100.0 mg/kg/injection, schedule: Q01DX001 (ip), vehicle: Klucel (hydroxypropylcellulose) (HPC) 97 % of control | dose: 200.0 mg/kg/injection, schedule: Q01DX001 (ip), vehicle: Klucel (hydroxypropylcellulose) (HPC) 96 % of control | dose: 400.0 mg/kg/injection, schedule: Q01DX001 (ip), vehicle: Klucel (hydroxypropylcellulose) (HPC) 93 % of control

CCCCOC(=O)C1(C)OC1c1ccccc1 (centres undefined)
inactive: dose: 100.0 mg/kg/injection, schedule: Q04DX002 (ip), vehicle: saline 101 % of control | dose: 200.0 mg/kg/injection, schedule: Q04DX002 (ip), vehicle: saline 89 % of control | dose: 400.0 mg/kg/injection, schedule: Q04DX002 (ip), vehicle: saline 101 % of control

O=C1OC(c2cccc(Cl)c2)=N/C1=C\c1cc(Br)ccc1O
inactive: [1] 89 % of control | [2] 96 % of control | [3] 89 % of control

CC1=C(C)CC(c2ccccc2)C(C(=O)O)C1 (centres undefined)
inactive: dose: 176.0 mg/kg/injection, schedule: Q01DX001 (ip), vehicle: other 100 % of control | dose: 266.0 mg/kg/injection, schedule: Q01DX001 (ip), vehicle: other 100 % of control | dose: 400.0 mg/kg/injection, schedule: Q01DX001 (ip), vehicle: other 101 % of control

C=CCNC(=S)Nc1cccc(Cl)c1C
inactive: dose: 12.5 mg/kg/injection, schedule: Q01DX009 (ip), vehicle: Klucel (hydroxypropylcellulose) (HPC) 87 % of control | dose: 25.0 mg/kg/injection, schedule: Q01DX009 (ip), vehicle: Klucel (hydroxypropylcellulose) (HPC) 101 % of control | dose: 50.0 mg/kg/injection, schedule: Q01DX009 (ip), vehicle: Klucel (hydroxypropylcellulose) (HPC) 96 % of control | [5] 90 % of control | [6] 100 % of control | [7] 94 % of control

C=CCOP(OCC=C)OCC=C
inactive: dose: 25.0 mg/kg/injection, schedule: Q01DX009 (ip), vehicle: saline 103 % of control | dose: 50.0 mg/kg/injection, schedule: Q01DX009 (ip), vehicle: saline 103 % of control | dose: 50.0 mg/kg/injection, schedule: Q04DX003 (ip), vehicle: saline 97 % of control | dose: 100.0 mg/kg/injection, schedule: Q01DX009 (ip), vehicle: saline 87 % of control | [8] 101 % of control

CC(C)c1nc(C=O)c(C=O)n1Cc1ccccc1
inactive: dose: 25.0 mg/kg/injection, schedule: Q01DX009 (ip), vehicle: saline with Tween-80 100 % of control and 90 % of control | dose: 25.0 mg/kg/injection, schedule: Q04DX002 (ip), vehicle: saline with Tween-80 101 % of control and 103 % of control | dose: 25.0 mg/kg/injection, schedule: Q04DX003 (ip), vehicle: carboxymethylcellulose (CMC) 92 % of control | dose: 50.0 mg/kg/injection, schedule: Q01DX001 (ip), vehicle: saline with Tween-80 89 % of control | dose: 50.0 mg/kg/injection, schedule: Q01DX009 (ip), vehicle: saline with Tween-80 102 % of control and 103 % of control | [9] 95 % of control and 101 % of control | dose: 50.0 mg/kg/injection, schedule: Q04DX003 (ip), vehicle: carboxymethylcellulose (CMC) 95 % of control | [10] 96 % of control | [4] 94 % of control and 105 % of control | [11] 105 % of control | dose: 100.0 mg/kg/injection, schedule: Q04DX002 (ip), vehicle: other 98 % of control and 89 % of control | [1] 95 % of control and 86 % of control | dose: 100.0 mg/kg/injection, schedule: Q04DX003 (ip), vehicle: carboxymethylcellulose (CMC) 100 % of control | [12] 94 % of control | [13] 107 % of control | dose: 200.0 mg/kg/injection, schedule: Q04DX002 (ip), vehicle: other 98 % of control

O=C1CCN(Cc2ccco2)C(=S)N1
inactive: dose: 25.0 mg/kg/injection, schedule: Q01DX Z (ip), vehicle: methylcellulose (MC) 101 % of control | dose: 50.0 mg/kg/injection, schedule: Q01DX Z (ip), vehicle: methylcellulose (MC) 97 % of control

ClCC/C(=C(/Cl)c1ccccc1)c1ccccc1
inactive: [5] 103 % of control | [6] 98 % of control | [7] 98 % of control

O=P(C1CCCC1)(C1CCCC1)C1CCCC1
inactive: [10] 100 % of control | [12] 94 % of control | dose: 400.0 mg/kg/injection, schedule: Q01DX001 (ip), vehicle: saline with Tween-80 92 % of control

C[C@@H]1C[C@@]2(C)[C@@H](CC[C@@H]3[C@@H]2CC[C@]2(C)[C@@H](O)CC[C@@H]32)C[C@@H]1O
inactive: dose: 62.5 mg/kg/injection, schedule: Q01DX015 (sc), vehicle: steriod suspending solution 100 % of control | dose: 125.0 mg/kg/injection, schedule: Q01DX015 (sc), vehicle: steriod suspending solution 94 % of control | dose: 250.0 mg/kg/injection, schedule: Q01DX015 (sc), vehicle: steriod suspending solution 102 % of control | dose: 500.0 mg/kg/injection, schedule: Q01DX015 (sc), vehicle: steriod suspending solution 94 % of control

COc1cc2c(cc1OC(C)=O)C(OC(C)=O)CCCC2 (centres undefined)
inactive: dose: 5.0 mg/kg/injection, schedule: Q01DX001 (ip), vehicle: saline 109 % of control | dose: 10.0 mg/kg/injection, schedule: Q01DX001 (ip), vehicle: saline 109 % of control | dose: 20.0 mg/kg/injection, schedule: Q01DX001 (ip), vehicle: saline 97 % of control | dose: 40.0 mg/kg/injection, schedule: Q01DX001 (ip), vehicle: saline 105 % of control

CCCCOP(=O)(NC1CCCCC1)OCCCC
inactive: [9] 107 % of control | [1] 96 % of control | [2] 104 % of control

C/C(=N\N(C)C)C(=O)OC(C)(C)C
inactive: [8] 107 % of control | dose: 200.0 mg/kg/injection, schedule: Q04DX003 (ip), vehicle: saline 98 % of control | dose: 400.0 mg/kg/injection, schedule: Q04DX003 (ip), vehicle: saline 96 % of control

COC1=NS(=O)(=O)N=C(c2ccc(OC)cc2)O1
inactive: [11] 103 % of control | [13] 100 % of control | dose: 400.0 mg/kg/injection, schedule: Q04DX002 (ip), vehicle: Klucel (hydroxypropylcellulose) (HPC) 89 % of control
